From patent US9867879B2 (Vanderbilt University, priority 2015, dated 2018)
pEC50, pIC50: −log10 of the molar value. Converted amounts (≈) assume the structure as drawn. “Also recorded” adds a separate entry of the source. Like-named read-outs stand apart in the source and are kept apart here.

Experiments:
S. aureus [1] = conditions: earlier method, low cell density; cited from earlier work
HssRS = assay: microbe, parasite or virus in culture; format: cell-based, S. aureus; conditions: for pEC50 / EC50: Staphylococcus aureus, 6 h; for EC50: read-out: pEC50 (converted); for Efficacy: percent activation of HssRS compared to 1 at 50 μM, error one standard deviation; for HssRS activation in single point screen: 50 μM, fraction of activation relative to 1, cut-off 0.05, in words
Procedure: Previously reported strains were used.^11 Cultures grown overnight in 5 ml TSB with 10 μg mL^−1 chloramphenicol for 15-18 h were subcultured 1:100 into 0.5 mL TSB with 10 μg mL^−1 chloramphenicol containing compound and incubated at 37° C., 180 rpm for 6 h. Cells were washed and lysed as previously described. 200 μL of a 200 μM catechol solution in 100 mM potassium phosphate (pH 8.0) was added to 20 μL of lysate and the oxidation of catechol was followed by monitoring absorbance at 375 nm for 10 min. Samples were normalized to protein concentration as determined by BCA assay (Pierce).
The above XylE procedure was followed using different concentrations of compound. The data were then entered into Graphpad Prism 6 and fit to a curve to determine EC50 values.
HssRS activation. The library was screened for activation of the heme stress response as an indicator for activation of heme biosynthesis in S. aureus. We began by screening at the single point concentration of 50 μM using a previously described reporter assay (FIG. 4).^11 In this assay, Newman harboring a plasmid with the hrt promoter fused to xylE, a gene encoding a catechol oxidase, is treated with compound for six hours, the bacteria lysed, and the oxidation of catechol by XylE quantified by spectrophotometry. An increase in absorbance due to the oxidation of catechol indicates elevated levels of xylE transcription and hrt promoter activity. Results are expressed as the fraction of activation of HssRS by the compound compared to 1. […] With reference to FIG. 8, activation of HssRS by 3a and 3b at 50 μM. Activity is presented as the fraction of activation by the indicated derivative relative to 1 at 50 μM.

[2] = tested on: wild type S. aureus strain Newman; assay: Growth inhibition IC50, Newman anaerobic (fermenting); format: cell-based; conditions: for pIC50: Staphylococcus aureus, NEWMAN, 9 h of growth, anaerobic chamber, 95% confidence interval, >60 μM considered nontoxic; for toxicity to fermenting / anaerobic S. aureus (in words): anaerobic Newman and ΔmenB, from IC50 data
Procedure: (§1) Cultures of wild type S. aureus strain Newman and ΔmenB^14 were grown in aeration tubes aerobically at 37° C. with shaking for 15-18 h. Anaerobic cultures were prepared by growing bacteria at 37° C. without shaking in an anaerobic chamber for 15-18 h. Bacteria from each condition were subcultured 1:100 into TSB containing various concentrations of compound in a 96 well plate. Aerobic wild type and ΔmenB plates are incubated aerobically at 37° C. with shaking while anaerobic plates were grown in an anaerobic chamber (Coy) at 37° C. without shaking. The absorbance at 600 nm (OD600) was determined after 9 h of growth and the fraction of growth at each compound concentration is determined by dividing the OD600 by the vehicle control (DMSO) value. IC50s were calculated using Graphpad Prism 6 and errors are reported as 95% confidence intervals.
(§2) Wild type S. aureus strain Newman was grown in an anaerobic chamber in appropriate media to ensure exclusion of terminal electron acceptors sufficient to force the bacteria to ferment. […] The arbitrary cut off point for toxicity of 60 μM was chosen as many of the compounds were not entirely soluble above this concentration.

[3] = tested on: wild type S. aureus strain Newman; assay: Growth inhibition IC50, Newman aerobic; format: cell-based; conditions: 95% confidence interval, >60 μM considered nontoxic
Procedure: as §1, §2

ΔmenB = assay: Growth inhibition IC50, ΔmenB; format: cell-based, S. aureus; conditions: Staphylococcus aureus, 9 h, read-out: IC50 ΔmenB
Procedure: as §1, with “intervals. […]” for “intervals.”

S. aureus [4] = assay: Heme adaptation assay; format: cell-based; conditions: subculture into 20 μM heme
Procedure: Overnight cultures of S. aureus were subcultured into 500 μL TSB containing compound in 1.5 mL tubes and incubated at 37° C. with shaking for 15 h. Bacteria from the compound treated cultures were then subcultured 1:100 into 100 μL TSB containing heme and incubated at 37° C. with shaking for 8 h. Growth was monitored by reading the OD600 on a Biotek microplate reader at the defined time intervals.
Finally, the top activators were assayed for their ability to preadapt S. aureus to heme as an indication that they can activate HssRS outside the context of a reporter assay. Pretreatment of cultures with a compound that induces HrtAB expression through activation of HssRS at subtoxic concentrations allows the bacteria to survive and grow when subcultured into a toxic concentration of heme. Pretreatment with 4 μM heme, 40 μM 1, and vehicle with 40 μM of each of the top activators were compared (excluding 2d because of toxicity). All derivatives were able to preadapt S. aureus to a toxic concentration of heme (20 μM) as well as 4 μM heme and 40 μM 1 (FIG. 5). The discrepancy between XylE assay and heme adaptation activity is likely due to the length of treatment with compound (6 h vs. 15 h).

S. aureus infection = conditions: previously reported; cited from earlier work
[5] = tested on: heme biosynthetic pathway; assay: Accumulation of heme precursor molecules; format: cell-based, S. aureus; conditions: data not shown
Text: Because ALA is the first committed precursor molecule in the heme biosynthetic pathway, if ALA is contacted with bacteria, the bacteria will generated enhanced amounts of all of the heme precursor molecules downstream of ALA.

Solubility limit = format: physicochemical
[6] = Staphylococcus aureus, NEWMAN, 9 h, read-out: IC50 Newman aerobic, 9 h of growth, aerobic

SMILES | pEC50 (HssRS) | EC50 (HssRS) | Efficacy (HssRS) | pIC50 [2] | toxicity to fermenting / anaerobic S. aureus (in words) [2] | pIC50 [3, 6] | pIC50 (ΔmenB) | preadaptation to heme toxicity (S. aureus [4]; pretreatment 40 μM compound) | also measured
Oc1c(-c2cc(-c3ccco3)[nH]n2)ccc2ccccc12 [Compound 1] | 4.94 | 12.6 µM | 100% | 4.87 | intermediate between the two | < 4.22 | 5.78 | – | anaerobic toxicity (previously reported) (S. aureus [1]): toxic to S. aureus growing anaerobically
Oc1ccccc1-c1cc(-c2ccccc2O)[nH]n1 [Compound 2d, 2,2′-(1H-pyrazole-3,5-diyl)diphenol] | 5.24 | 5.75 µM | – | 4.80 | anaerobic toxicity similar to 1; also recorded: exhibits both activities | 4.37 | 5.03 | – | preadaptation to heme toxicity (S. aureus [4]; pretreatment 20 μM compound): excellent preadaptation to heme toxicity; pIC50 ([3]; read-out: IC50 Newman aerobic, 9 h of growth, aerobic): 4.37
Oc1ccccc1-c1cc(-c2ccccc2F)[nH]n1 [Compound 2e] | 4.97 | 10.7 µM | 35.7 ± 10.1% | < 4.22 | eliminates this toxicity; also recorded: not bacteriostatic under the conditions tested here; also recorded: removes toxicity | < 4.22 | < 4.22 | – | efficacy in mouse model of S. aureus infection (S. aureus infection): efficacy in a mouse model of S. aureus infection; anaerobic toxicity (previously reported) (S. aureus [1]): anaerobic toxicity; HssRS activation in single point screen (HssRS): comparable to 1a in activity; drop in efficacy (HssRS; compared to 1): ~70%
COc1ccccc1-c1cc(-c2ccccc2)[nH]n1 [Compound 3a, 3-(2-methoxyphenyl)-5-phenyl-1H-pyrazole] | – | – | – | 4.68 | maintaining toxicity | < 4.22 | 4.60 | indistinguishable from vehicle | HssRS activation (in words) (HssRS; summary statements, concentration not fixed): removes HssRS activity
O=C(Nc1ccccc1-c1cc(-c2ccco2)[nH]n1)c1cc(Cl)cc(Cl)c1 [Compound 1i, 3,5-dichloro-N-(2-(5-(furan-2-yl)-1H-pyrazol-3-yl)phenyl)benzamide] | – | – | – | 4.71 | – | < 4.22 | 5.06 | indistinguishable from vehicle | –
NCC(=O)CCC(=O)O [ALA, reference compound] | – | – | – | – | – | – | – | – | accumulation of PBG [5]: results in accumulation of PBG
Oc1ccccc1-c1cc(-c2cccs2)[nH]n1 [Compound 2a, 2-(5-(thiophen-2-yl)-1H-pyrazol-3-yl)phenol] | – | – | 17.0 ± 2.9% | < 4.22 | – | < 4.22 | < 4.22 | – | solubility (Solubility limit): ~80 µM (≈ 19.4 µg/mL)
CCCCCc1cc(-c2ccccc2O)n[nH]1 [Compound 2o, 2-(5-pentyl-1H-pyrazol-3-yl)phenol] | – | – | – | 4.94 | comparably toxic to 1 | 4.31 | 4.88 | indistinguishable from vehicle | –
Oc1ccccc1-c1cc(-c2ccncc2)[nH]n1 [Compound 2i] | – | – | – | < 4.22 | – | < 4.22 | < 4.22 | indistinguishable from vehicle | –
Cn1nc(-c2ccco2)cc1-c1ccc2ccccc2c1O [Compound 4a, 2-(3-(furan-2-yl)-1-methyl-1H-pyrazol-5-yl)naphthalen-1-ol] | – | – | – | 4.58 | maintains toxicity comparable to the parent molecule | < 4.22 | 4.80 | – | HssRS activation in single point screen (HssRS): complete loss of activity; toxicity relative to 4b ([2]; fermenting wildtype S. aureus and ΔmenB): approximately five times less toxic
